Experimental findings from PMC4929566, “The metabolome of [2-^14C](−)-epicatechin in humans: implications for the assessment of efficacy, safety, and mechanisms of action of polyphenolic bioactives” (Scientific Reports, 2016) are described below.

A short description of series [1]: Metabolite profiling and quantification in urine (HPLC-MS2 with on-line radioactivity detector). The settings on record: human, oral 207 μmol 14C-EC, mean ± SEM n=8. It is filed as in vivo, humans. On the procedure:
(§1) The study was a single-center, open-label, and non-randomized study with two distinct elements: a run-in phase to establish a more defined dietary background of dietary flavanols and procyanidins and the subsequent ^14C-EC ADME study (Fig. 1B). Participants (n = 12) were enrolled in the run-in phase (day –17 to day –4) and asked to supplement their daily diet for 14 days with a commercially available flavanol-containing cocoa-based drink (250 mg cocoa flavanols; 40 mg of EC). This was followed by a 4-day period (day –4 to 0) of a low-flavanol diet. One day (study day -1) prior to the initialization of the ^14C-EC ADME study, all eligible participants were accommodated under controlled conditions at a metabolic research facility (Covance Clinical Pharmacology Inc., Wisconsin) until completion of the study. Based on the compliance of the first part of the study, 8 participants were selected to participate in the ^14C-EC ADME study. During the ^14C-EC ADME study (Fig. 1B.), volunteers received a low-flavanol, standardized high-fiber diet, and were encouraged to maintain an adequate level of hydration (water ad libitum). Volunteers were asked to fast for 8 h before the initiation of the study and for at least 4 h after the intake of the ^14C-EC test drink (water ad libitum). Venous blood samples were taken using Vacutainer collection tubes, containing potassium EDTA at 0 h (just prior to ^14C-EC ingestion), and at 0.25, 0.5, 1, 1.5, 2, 2.5, 3, 4, 6, 8, 10, 12, 16, 24, 36, and 48 h after test drink consumption. Plasma was obtained by whole blood centrifugation at 2000 × g for 15 min at 5 °C, separated into aliquots and stored at −80 °C until analysis. All urine and feces from the time just prior to the consumption of the test drink were collected at different time intervals for radioactivity and metabolite profiling. Clinical parameters and laboratory evaluations of participants were assessed at screening, on study day –1, and after completing the study, as detailed in Supplementary Methods.
(§2) Samples were processed as described previously[18] and analyzed by HPLC-MS^2 in conjunction with an on-line HPLC-radioactivity monitor as described in SI Materials and Methods. Identification of metabolites involved comparing the retention time with authentic standards and MS^2 fragmentation patterns (Supplementary Methods). Quantification of metabolites in urine was based on HPLC radioactivity peak area (limit of quantification: 10^3 dpm). Due to the low levels of radioactivity, quantification in plasma was based on targeted HPLC-MS^2 using standard curves obtained with authentic standards (Supplementary Methods).
HPLC-MS identifications of radiolabeled [2-14C](−)-epicatechin metabolites in urine Urine was analyzed with radioactivity and mass spectrometry (MS) detection using a 250 mm x 4.6 mm i.d. 5 µm Luna Phenyl-Hexyl column (Phenomenex, Macclesfield, UK) […]
formic acid. Metabolite identification was performed by 1) co-chromatography of metabolites with reference compounds and a comparison of their MS fragmentation patterns 2, 2) by comparing m/z fragmentation patterns with earlier in-house observed […]
patterns to databases of metabolites reported in earlier polyphenol feeding studies5-7.
Supplementary Table S2, which also provides information on the MSI MI (Metabolite Standards Initiative – Metabolites Identification) level, a confidence level for identification where level 1 stands for fully elucidated (i.e., by comparison with a standard) and level 2 for a well characterized, but not yet fully structurally elucidated 8

Series [2] in a line: Metabolite profiling and pharmacokinetics in plasma (targeted HPLC-MS2). It is filed as in vivo, humans. The settings on record: human plasma, oral 60 mg 14C-EC; for Cmax / AUC(0-t) / half-life / Tmax / AUC0-24h / T1/2 (elimination half-life): mean ± SEM n=8; for AUC(0-t): read-out: AUC0-24h; for half-life: read-out: T1/2 (elimination half-life) (converted). On the procedure:
as §1, §2
Data are expressed as mean values ± standard error, or as otherwise specified. Pharmacokinetic parameters were calculated using non-compartmental analysis with WinNonlin (Pharsight Corporation, Version 5.2).
5-20% acetonitrile in 0.1 % formic acid. Supplementary Table S2 provides details of HPLC retention times and the m/z values that were monitored.
Supplementary Table S2. Detection of (−)-epicatechin metabolites. HPLC retention times and selected reaction monitoring ions used for the HPLC-MS analysis of (−)-epicatechin metabolites in plasma. […]
Structurally related (-)-epicatechin metabolites in humans: assessment using de novo chemically synthesized authentic standards. Free Radic Biol Med 52, 1403- […]
3 Borges, G. et al. Bioavailability of multiple components following acute ingestion of a polyphenol-rich juice drink. Mol Nutr Food Res 54 Suppl 2, S268-277, […]
4 Stalmach, A. et al. Absorption, metabolism, and excretion of green tea flavan-3-ols in humans with an ileostomy. Mol Nutr Food Res 54, 323-334,

SMILES strings stand for the structures. Read-outs that look alike come from different tables or passages of the source.

By Cmax is commonly meant the peak of the concentration-time curve. By Tmax is commonly meant the time at which the peak concentration occurs. On to `COc1cc([C@H]2Oc3cc(O)cc(OS(=O)(=O)O)c3C[C@H]2O)ccc1O` [3′-O-Methyl-(−)-epicatechin-5-sulfate, 3′-O-methyl-(−)-epicatechin-5-sulfate], for which the “Metabolite present in urine, collection period 0–48 h” value in series [1] was 9.6 ± 1.2 μ mol. Further, in series [1] (– = not detected), the “Metabolite present in urine, collection period 0–4 h” value came out at 7.1 ± 0.9 μ mol; the “Metabolite present in urine, collection period 4–8 h” value amounted to 1.8 ± 0.3 μ mol; the “Metabolite present in urine, collection period 8–12 h” value came out at 0.4 ± 0.1 μ mol; the “Metabolite present in urine, collection period 12–24 h” value worked out at 0.3 ± 0.2 μ mol. Further, in series [2] (male), the Cmax came out at 240 ± 24 nM, the AUC(0-t) was 0.915 ± 0.178 µM·h and the half-life was 1.6 ± 0.1 h. The Tmax in series [2] (male, read-out: Tmax) was determined as 0.9 ± 0.1 h.
For the compound `O=S(=O)(O)Oc1cc(O)cc2c1C[C@@H](O)[C@@H](c1ccc(O)c(O)c1)O2` [(−)-Epicatechin-5-sulfate], the “Metabolite present in urine, collection period 0–48 h” value in series [1] came to 1.3 ± 0.2 μ mol. Besides, the “Metabolite present in urine, collection period 0–4 h” value in series [1] (– = not detected) stood at 1.3 ± 0.2 μ mol. In series [2], the AUC0-24h was determined as 0.092 ± 0.025 µM·h, the Cmax was 32 ± 4 nM, the “T1/2 (elimination half-life)” value stood at 1.9 ± 0.3 h and the Tmax amounted to 0.8 ± 0.1 h.
Turning to `O=S(=O)(O)Oc1cc([C@H]2Oc3cc(O)cc(O)c3C[C@H]2O)ccc1O` [(−)-Epicatechin-3′-sulfate, (−)-epicatechin-3′-sulfate], the “Metabolite present in urine, collection period 0–48 h” value in series [1] was found to be 7.7 ± 0.9 μ mol. Further, in series [1] (– = not detected), the “Metabolite present in urine, collection period 0–4 h” value was determined as 6.0 ± 0.7 μ mol; the “Metabolite present in urine, collection period 4–8 h” value is 1.2 ± 0.4 μ mol; the “Metabolite present in urine, collection period 8–12 h” value amounted to 0.3 ± 0.1 μ mol; the “Metabolite present in urine, collection period 12–24 h” value was 0.2 ± 0.2 μ mol. In series [2] (male), the Cmax was determined as 191 ± 17 nM, the AUC(0-t) came to 0.633 ± 0.135 µM·h and the half-life was 2 ± 0.3 h. The Tmax in series [2] (male, read-out: Tmax) amounted to 1.1 ± 0.1 h.
Turning to `COc1cc([C@H]2Oc3cc(O)cc(O)c3C[C@H]2O)ccc1OS(=O)(=O)O` [3′-O-Methyl-(−)-epicatechin-4′-sulfate], in series [1], the “Metabolite present in urine, collection period 0–48 h” value amounted to 0.7 ± 0.2 μ mol. In addition, the “Metabolite present in urine, collection period 0–4 h” value in series [1] (– = not detected) is given as 0.7 ± 0.2 μ mol. Further, in series [2], the AUC0-24h is 0.203 ± 0.069 µM·h, the Cmax worked out at 53 ± 13 nM, the “T1/2 (elimination half-life)” value came out at 2.3 ± 0.6 h and the Tmax amounted to 0.9 ± 0.1 h.
As to `COc1ccc([C@H]2Oc3cc(O)cc(OS(=O)(=O)O)c3C[C@H]2O)cc1O` [4′-O-Methyl-(−)-epicatechin-5-sulfate], in series [1], the “Metabolite present in urine, collection period 0–48 h” value came to 1.1 ± 0.3 μ mol. For the same compound, in series [1] (– = not detected), the “Metabolite present in urine, collection period 0–4 h” value was 1.0 ± 0.2 μ mol and the “Metabolite present in urine, collection period 4–8 h” value stood at 0.1 ± 0.1 μ mol. Also, in series [2], the AUC0-24h amounted to 0.128 ± 0.045 µM·h, the maximum concentration (Cmax) was determined as 53 ± 14 nM, the “T1/2 (elimination half-life)” value stood at 1.4 ± 0.3 h and the Tmax stood at 0.9 ± 0.1 h.
As to `O=C(O)[C@H]1O[C@@H](Oc2cc([C@H]3Oc4cc(O)cc(O)c4C[C@H]3O)ccc2O)[C@H](O)[C@@H](O)[C@@H]1O` [(−)-Epicatechin-3′-O-glucuronide, (−)-epicatechin-3′-O-β-D-glucuronide], in series [1], the “Metabolite present in urine, collection period 0–48 h” value came out at 18.6 ± 2.5 μ mol. For the same compound, in series [1] (– = not detected), the “Metabolite present in urine, collection period 0–4 h” value is 8.0 ± 1.4 μ mol; the “Metabolite present in urine, collection period 4–8 h” value worked out at 5.7 ± 1.3 μ mol; the “Metabolite present in urine, collection period 8–12 h” value worked out at 2.9 ± 0.8 μ mol; the “Metabolite present in urine, collection period 12–24 h” value is 2.0 ± 0.8 μ mol. In series [2] (male), the Cmax turned out to be 359 ± 23 nM, the AUC(0-t) turned out to be 1.62 ± 0.332 µM·h and the half-life is 2 ± 1.1 h. In addition, the Tmax in series [2] (male, read-out: Tmax) came to 0.8 ± 0.1 h.
With `COc1ccc([C@H]2Oc3cc(OS(=O)(=O)O)cc(O)c3C[C@H]2O)cc1O` [4′-O-Methyl-(−)-epicatechin-7-sulfate], the “Metabolite present in urine, collection period 0–48 h” value in series [1] came to 0.4 ± 0.2 μ mol. Further, in series [1] (– = not detected), the “Metabolite present in urine, collection period 0–4 h” value came out at 0.3 ± 0.1 μ mol and the “Metabolite present in urine, collection period 4–8 h” value was 0.1 ± 0.1 μ mol. Besides, in series [2], the AUC0-24h was 0.166 ± 0.054 µM·h, the Cmax amounted to 33 ± 5 nM, the “T1/2 (elimination half-life)” value amounted to 2.6 ± 0.5 h and the Tmax is recorded as 1.4 ± 0.2 h.
In the case of `O=C1CCC(Cc2ccc(O)c(OS(=O)(=O)O)c2)O1` (stereo not shown) [5-(4′-hydroxyphenyl)-γ-valerolactone-3′-sulfate], the “Metabolite present in urine, collection period 0–48 h” value in series [1] is 38.0 ± 4.7 μ mol. In series [1] (– = not detected), the “Metabolite present in urine, collection period 0–4 h” value is 3.6 ± 1.1 μ mol; the “Metabolite present in urine, collection period 4–8 h” value is listed as 16.0 ± 3.0 μ mol; the “Metabolite present in urine, collection period 8–12 h” value is 9.8 ± 2.0 μ mol; the “Metabolite present in urine, collection period 12–24 h” value came out at 8.1 ± 2.9 μ mol. In series [1] (– = not detected), the “Metabolite present in urine, collection period 24–48 h” value stood at 0.5 ± 0.5 μ mol. For the same compound, in series [2] (male), the Cmax amounted to 272 ± 56 nM, the AUC(0-t) was 7.59 ± 2.68 µM·h and the half-life was 6.3 ± 1.7 h. In addition, the Tmax in series [2] (male, read-out: Tmax) turned out to be 6.4 ± 1 h. Further, in series [2] (male, read-out: Plasma concentration 24 h after ingestion), the concentration at 24 h was about 50 nM.
